The test system of this assay is Cell Line A549 (human lung cancer epithelial cells). Briefly: Cell cycle characterization of Taxol-treated A549 cells by image analysis of DAPI-stained DNA. The assay is classed as cell-based. How it is done:
FIGS. 14A-14G depict the results of an experiment in which human lung cancer epithelial cells were treated with Taxol and the effect of Taxol on the cell cycle was characterized. The specific cells used in this study were from Cell Line A549 (human lung cancer epithelial cells) (ATCC:CCL-185). Two day staged cell cultures of the A549 cells were trypsinized for five minutes from T175 cm flasks. The cells were then suspended in ten milliliters of RPMI media with ten percent serum and counted using both a hemocytometer and Coulter Counter. The suspension was diluted further in media to ensure that there were 1600 cells per twenty microliters in suspension. The cells were then counted again. Thereafter, they were transferred to a Cell Stir and kept in suspension while being plated into barcoded 384 well plates using a MultiDrop at twenty microliters per well. The plates were transferred to a humidified carbon dioxide incubator to recover for twenty-four hours before the addition of Taxol or DMSO. Prior to imaging the cells were treated with DAPI to stain DNA. Cells from each well were then imaged.
Of relevance to this example, eight wells were treated with Taxol at varying concentrations and eight other “control” wells were treated with DMSO, which is not toxic to the cells under consideration. The concentration of Taxol varied from approximately 0.09 micromolar to 200 micromolar. […] Cells in each of the eight Taxol wells were separately imaged and the total measured intensity in each cell was recorded. As discussed above, the total intensity corresponds to the amount of DNA in each cell. In the histogram, the cell count has been normalized so that the area under each curve was equal to a value of one.
The data used to produce the histogram of FIG. 14B was taken from the same images of the eight Taxol containing wells used to produce the histogram of FIG. 14A. In this histogram, the mitotic discriminator is defined as log2(average intensity) minus log2(area).
The five phases are G1, S, G2, m (telophase), and M (prophase, metaphase, and anaphase). […]

The structures appear in SMILES notation.

In the case of `CC(=O)O[C@H]1C(=O)[C@@]2(C)[C@H]([C@H](OC(=O)c3ccccc3)[C@]3(O)C[C@H](OC(=O)[C@H](O)[C@@H](NC(=O)c4ccccc4)c4ccccc4)C(C)=C1C3(C)C)[C@]1(OC(C)=O)CO[C@@H]1C[C@@H]2O` [Taxol], under “Taxol approximately 0.09 micromolar to 200 micromolar, eight wells, DAPI stain, FIG. 14A”, the “distribution of cells based upon the amount of DNA contained in each cell (log2 total intensity histogram; G1 vs G2 peaks)” value is reported as “arrests cells in the G2 phase”. In addition, the “mitotic discriminator (log2(average intensity) minus log2(area)); relative incidence of mitotic vs interphase cells” value (Taxol approximately 0.09 to 200 micromolar, FIG. 14B) is recorded as “greatly increase the relative incidence of mitotic cells”. The “number of objects divided by the average number of DMSO objects ("o" curve; objects correspond to living cells)” value (Taxol approximately 0.09 to 200 micromolar, FIG. 14C) is “decreases with increasing concentration of Taxol”.

For the origin of these results see patent publication US20040071328A1, “Classifying cells based on information contained in cell images” (priority 2003, published 2004).
